Results on 1 compound are retold here after US6426343B1, “Preparation and use of a specific GABA-Aα5 receptor ligand for treatment of Alzheimer's disease” (Merck Sharp & Dohme Ltd., priority 1995, dated 2002).

Data set [1] deals with Male PVG hooded rats. The experiment in a line: Morris watermaze cognitive studies. Type of data set: in vivo, rat. How it is done:
FG 8094 was synthesised by the Merck, Sharp and Dohme Neuroscience Research Centre's medicinal chemistry group and was suspended in 0.5% CMC. Vehicle or FG 8094 was administered IP 30 mins before the beginning of the first training trial.
Male PVG hooded rats (Bantin & Kingman, Hull U.K.), weighting approximately 300 g, were housed in groups of four with free access to food and water. The animals were maintained on a 12/12 h light-dark cycle, with the lights on at 07:00 h.
The Morris watermaze consists of a white, fibre-glass circular pool, of diameter 2 m, filled with an opaque mixture of water and white dye (E308, Morton International) maintained at 26-28° C. […] A hidden platform (13×13 cm) submerged 2 cm below the water surface was placed in the middle of the NE quadrant.
A closed-circuit video camera, fitted with a wide-angle lens, was mounted directly above the centre of the pool and connected to an image analyser which digitised the image. The digital information was relay to an Archimedes microcomputer running ‘Watermaze’ a software package supplied by Paul Fray LTD (Cambridge, UK). The software package provided the following measures: latency to reach the platform, length of path taken, average swimming speed, the time spent and the total distance travelled in the target quadrant.
The rats were assigned to four treatment groups (n=8): Vehicle, 0. 1, 0.3, 1.0 mg/kg FG 8094. During the acquisition phase of the experiment all the groups were given four trials per day. During this time the hidden platform was submerged in the NE quadrant of the watermaze. The rat was taken from the home cage and placed into the watermaze at one of four quasi-randomly determined locations (‘North’, ‘East’, ‘South’, or ‘West’) with its head facing, and almost touching, the pool wall. Trials began when the rat was released by the experimenter and ended when the rat climbed onto the platform and the mean escape latency was recorded. The maximum trial length was 60 s. If by that time the rat had not climbed on to the platform the trial ended automatically, the experimenter placed the rat on the platform and an escape latency of 60 s was recorded. The rat remained on the platform for 30 s and was then removed to a high-sided opaque plastic container for a further 30 s, (inter-trial interval, ITI). At the end of the ITI the rat was placed into the pool again, but at a different location and upon release the next trial began. This procedure was repeated until four trials had been completed.
Normally, the escape latency declines over several days of training from 60 s to around 20 s. A ‘probe trial’ assess the rat's spatial memory for the location of the hidden platform. During this trial the platform was removed from the watermaze and the rat was allowed to search the pool for 60 s before it was removed from the pool. If the treatment improves the rat's memory for the location of the platform, it will spend longer searching the quadrant in which the platform had previously been hidden (NE) than a rat given vehicle treatment.
Deficits in performance that might be due to drug-induced side-effects (such as blurred vision or motoric deficits resulting in an impaired ability to swim) were assessed using cued recall. In this procedure, the platform was also placed in the NE quadrant, but was raised 3 cm above the water level and thus visible to the rat. If the treatment has no effects on the mean escape latencies to the visible platform, then any group differences in mean escape latencies to an invisible platform can be attributed to an effect on cognitive process.
Six days following the probe trial, during which time the rats were not expose to the watermaze or administered FG 8094, the rats were again tested with the platform submerged in the NE quadrant using the acquisition protocol.
Reversal training was identical to the acquisition phase of the experiment with the exception that the platform was submerged in the middle of the SW quadrant.

Data set [2] in a line: Blood levels after subcutaneous pellet implantation. As to conditions: 1.5 mg in hydroxy propylmethylcellulose pellet, rats.

With `CCOC(=O)c1ncn2c1[C@@H]1CCCN1C(=O)c1cc(OC)ccc1-2` [FG 8094, 9H-imidazo[1,5-a]pyrrolo[2,1-C][1,4]benzodiazepine-1-carboxylic acid, 11, 12, 13, 13a-tetrahydro-7-methoxy-9-oxo-, ethyl ester, (S)-(9CI)], in data set [1] (0.1, 0.3, 1.0 mg/kg IP), the “cued recall, mean escape latency to the visible platform” value is recorded as “no significant effect of dose”; the “probe trial, time spent searching the platform quadrant” value is “no difference in the amount of time the control and drug groups spent searching the quadrant”. Also, in data set [1] (0.1, 0.3, 1.0 mg/kg IP, post hoc Newman-Keuls), the “cued recall, mean path length” value is “vehicle group traversed a significantly longer path than all the groups given FG 8094”. For the same compound, in data set [1] (0.3 and 1.0 mg/kg IP, nine day training), the “mean escape latencies, acquisition trials” value was “appear to be shorter than the vehicle control group or the 0.1 mg/kg group, the observation was not confirmed by Newman Keul post hoc tests”. Also, in data set [1] (acquisition trials, 0.1, 0.3, 1.0 mg/kg IP), the “mean swimming speed during escape to the hidden platform” value is “no significant effect of dose”. In data set [1] (platform moved to Southwest quadrant, first reversal day, p<0.05), the “reversal learning, mean escape latency” value is on record as “mean escape latency of the vehicle group was significantly longer than all of the FG 8094 groups”. The “recall test, mean escape latency” value in data set [1] (six days after probe trial, 0.1, 0.3, 1.0 mg/kg, p<0.05) is listed as “mean escape latency of the vehicle group was longer than any of the FG 8094 groups”. In data set [2], the blood levels entry is reported as “greater than 100 ng/ml” and the “duration of blood levels greater than 100 ng/ml” value is given as “more than 6 hours”.
